# Measurements published in a melting point compilation (Tetko et al.; mined from patent text by program, amines drawn as free bases though some values may be those of a salt).
row,SMILES,melting point [°C]
1,CCOC(=O)c1cnn(-c2ccc(C(F)(F)F)cc2[N+](=O)[O-])c1N,118 to 121
2,O=[N+]([O-])c1ccc(NCCc2ccccc2)c(S(=O)(=O)CCO)c1,95 to 95.5
3,O=CC=CC=CC=CC=Cc1ccsc1,156 to 158
4,Cc1cc(-n2nc(C(F)(F)F)cc2-c2ccc(S(C)(=O)=O)cc2)ccc1Cl,152 to 154
5,CCC(CC)c1[nH]c(C)c(C(C)=O)c1C,186 to 189
6,O=[N+]([O-])c1cccnc1NCc1ccccc1,81 to 82
7,Cc1ccc(-c2ccc3c(c2)C=C(C(=O)Nc2ccc(CN4CCCCC4)cc2)CCS3)cc1,203 to 204
8,CC(C)(C)CCN1C(=O)C(NC(=O)Oc2ccccc2)C(=O)N(c2ccccc2)c2ccccc21 (stereo not drawn),170 to 172
9,CCOC(=O)C(=NC1CCCCC1)c1cccn1C,35 to 36
10,COc1cccc(CCNC(=O)N2CCC(Nc3ccc(CCNC[C@H](O)COc4ccc(O)cc4)cc3)CC2)c1,103 to 108
11,O=c1[nH]c2ccc(-c3cccc(Cl)c3)cc2n1Cc1ccccc1,168 to 169
12,COc1ccc(C(=O)O)c(Sc2ccc(SC)cc2)c1,202 to 203
13,Cn1c2cc(C=O)ccc2c2nc3ccccc3nc21,237 to 238
14,COc1cc([N+](=O)[O-])ccc1N1CCN(CCCNc2c(C)c(=O)n(C)c(=O)n2C)CC1,131 to 133
15,CC(C)(C)OC(=O)N1CCc2ccc(C(=O)NC3COCCn4c3nc(-c3ccncn3)cc4=O)cc2C1 (racemic),252 to 254
16,CNC(=O)c1c(I)c(C(=O)O)c(I)c(C(=O)NC)c1I,> 300
17,C=CCC1(C)OC(=O)Nc2ccc(-c3cccc(Cl)c3)cc21 (stereo not drawn),128 to 129
18,CCOC(=O)CCCOc1ccc2nc3c(cc2c1)CC(=O)N3,181
19,CC(=O)SCC(CC1CN(Cc2ccccc2)CCO1)C(=O)Nc1cccc(C(=O)O)c1 (stereo not drawn),103 to 105
20,CC(C(=O)NCCN(C)C)c1ccc(-c2cn3ccccc3n2)cc1 (stereo not drawn),149 to 150
21,COC1(OC)CN(c2nc3c(cc2F)C=C(C(=O)O)CN3c2ccc(F)cc2F)CC1C (stereo not drawn),179 to 182
22,COc1ccc(S(=O)(=O)C(CCCCc2ccccc2)C(=O)NO)cc1OC (stereo not drawn),180 to 188
23,c1cc2c3c(c[nH]c3c1)CC1NCCOC21 (stereo not drawn),175 to 177
24,CNc1cc(C)nc2c(S(=O)(=O)c3ccccc3)c(SC)nn12,> 230
25,Cc1ccc(-c2ncc(Cl)cc2-c2ccc(S(C)=O)cc2)cn1 (stereo not drawn),122 to 123

row,SMILES,melting point [°C]
1,CC(=O)C(C(C)=O)=C1NC(=O)N(Cc2ccccc2)C1=O,211 to 212
2,Cc1ccc(S(=O)(=O)NC(C)(C)C)o1,113 to 114
3,O=C(c1ccccc1)c1cccc2cc[nH]c12,100 to 104
4,Cc1cc(C)c2c(=O)n(CC(=O)N3CCOCC3)sc2n1,200 to 203
5,CN(C)c1cc(CC(C#N)=CNc2ccccc2)cc(N(C)C)c1C(C)(C)C,150
6,Nc1ccc(N2CCN(c3ccc(OCC(O)(Cn4cncn4)c4ccc(Cl)cc4Cl)cc3)CC2)cc1 (stereo not drawn),120
7,COc1nccc2c(C)c3[nH]c4ccncc4c3cc12,> 263
8,COP(=O)(Nc1ccc([N+](=O)[O-])c(NCCc2ccccc2)c1)OC,128
9,NC(=O)N[C@H]1CC[C@H](NC(N)=O)CC1,> 320
10,C#CCNC(=S)NC1CCC(=O)c2sccc21 (stereo not drawn),130 to 136
11,NC(=O)[C@@H]1CCCN1C(=O)/C=C/Sc1ccccc1,50 to 54
12,O=C1CC2(CN1)CC(O)c1cc(Cl)ccc12 (stereo not drawn),172 to 174
13,O=c1ccc(S(=O)(=O)c2cc3cc(Cl)ccc3[nH]2)n[nH]1,> 250
14,NS(=O)(=O)c1ccc(-c2cnn(CC3=CCCCC3)c(=O)c2-c2ccc(F)cc2)cc1,192 to 193
15,OCc1cc(O)ccc1/C=C/c1ccc(O)cc1,223 to 225
16,CCCCCC(=O)OC(C)OC1=C(C(=O)Nc2ccccn2)N(C)S(=O)(=O)c2ccccc21 (stereo not drawn),62 to 65
17,O=C(Nc1ccc(OCCCN2CCOCC2)c2ccccc12)c1cc(F)cc(N2CCCCC2)c1,90 to 92
18,CCOC(=O)c1ccc(-c2ccc(O)c(-c3ccc(N(CC)CC)c(C(F)(F)F)c3)c2)cc1,170
19,Cn1cc(C(O)c2cccc(Cl)c2)cc1C(=O)O (stereo not drawn),180
20,Cc1cc(F)cc([N+](=O)[O-])c1C#N,61 to 63
21,O=c1[nH][nH]c(C(F)(F)F)c1Cc1ccc(Cl)cc1,151 to 152
22,CO[C@H](C)C(=O)N[C@H]1CC[C@H](CCN2CCN(c3nccc4c3OCC4)CC2)CC1,170
23,C#CCSc1nc(=O)n(CC#C)cc1F,135
24,COc1ccc(CC#N)c(CC#N)c1,49 to 51
25,CCCCCCCCCCCCCCCOc1ccc(C(C)=O)o1,67 to 68

row,SMILES,melting point [°C]
1,CCCCc1nc2c(N)nc3cccnc3c2n1CCNC(=O)c1cccc(O)n1,258 to 260
2,COc1c(F)cccc1C(=O)Cl,71 to 73
3,CCc1ccc2c(c1)N(Cc1ccc(-c3ccccc3C#N)cc1)C(=O)CC2(C)C,171 to 172
4,Cc1oc(-c2ccccc2)nc1CCOc1ccc(CN(O)C(N)=O)cc1F,135 to 136
5,CC1(C)C(=O)Nc2cc([N+](=O)[O-])c(NC(=O)c3ccncc3)cc21,310 to 318
6,CCN(CC)Cc1ccc(-c2ccc3c(Nc4cc(OC)c(Cl)cc4Cl)c(C#N)cnc3c2)cc1,191 to 195
7,CCOC(=O)N1CCN(c2cc3nc(C(C)(C)C)sc3cc2[N+](=O)[O-])CC1,100 to 102
8,O=C1CCCN1C1=NC(CF)(CF)Oc2ccc([N+](=O)[O-])cc21,195 to 198
9,Nc1cc(Oc2cccc(O)c2)ccc1[N+](=O)[O-],137
10,CCC(=O)Nc1cccc2c1C1(COc3cc4c(cc31)OCCO4)C(=O)N2C (stereo not drawn),224 to 226
11,CCOc1cc2c(Nc3cc(OC)c(Cl)cc3Cl)c(C#N)cnc2cc1I,213 to 215
12,O=[N+]([O-])c1cc(Cl)cc(CO)c1,74 to 75
13,CS(=O)(=O)c1ccc(-c2nc(C(F)(F)F)nc(NN)c2-c2ccc(F)cc2)cc1,286 to 290
14,CCS(=O)(=O)N=CNCc1cccc(-c2csc(N=C(N)N)n2)n1,201
15,CC(C(=O)Oc1ccc([N+](=O)[O-])cc1)c1ccccc1 (stereo not drawn),55 to 56.5
16,COc1cc(OC)c2c(=O)[nH]c(-c3cc(C)c(OC)c(C)c3)cc2n1,262 to 263
17,CCS(=O)(=O)c1ccc(F)c([N+](=O)[O-])c1,128 to 131
18,COc1ccc([C@H]2CC[C@H](c3ccc(OC)c(OC)c3)S2)cc1OC (relative stereo),103 to 105
19,C#CCOc1cc(-n2c(=O)nc(N(C)C)n(C)c2=O)c(F)cc1Cl,61 to 65
20,O=[N+]([O-])c1ccc(Oc2ccc(C(F)(F)F)cc2Cl)cc1NCP(=O)(O)O,148 to 150
21,CC(C)(C)N1OC(c2ccccc2)(N2CCOCC2)c2cc(Cl)ccc21 (stereo not drawn),130 to 132
22,Cc1cccc(C2(Cn3cncn3)OCCO2)c1,105
23,CC(=O)NCC1CN(c2cc(F)c(-c3cccnc3)c(F)c2)C(=O)O1 (stereo not drawn),218 to 219
